Legend:
Plasmodium falciparum [1] = assay: Antiplasmodial activity against Plasmodium falciparum 3D7 infected in O positive erythrocytes assessed as inhibition of parasite growth at 10 uM by FACS-based assay; assay type: functional
Plasmodium falciparum [2] = assay: Antiplasmodial activity against Plasmodium falciparum 3D7 infected in O positive erythrocytes assessed as inhibition of parasite growth at 50 uM by FACS-based assay; assay type: functional
Plasmodium falciparum [3] = assay: Antiplasmodial activity against Plasmodium falciparum 3D7 infected in O positive erythrocytes assessed as inhibition of parasite growth at 1 uM by FACS-based assay; assay type: functional
Plasmodium falciparum [4] = assay: Antiplasmodial activity against Plasmodium falciparum 3D7 infected in O positive erythrocytes assessed as inhibition of parasite growth at 30 uM by FACS-based assay; assay type: functional
Plasmodium falciparum [5] = assay: Antiplasmodial activity against Plasmodium falciparum 3D7 infected in O positive erythrocytes assessed as inhibition of parasite growth at 20 uM by FACS-based assay; assay type: functional
Plasmodium falciparum [6] = assay: Antiplasmodial activity against Plasmodium falciparum 3D7 infected in O positive erythrocytes assessed as parasitemia at 50 uM after 24 hrs by FACS-based assay (reference value: 1.670%); assay type: functional
Plasmodium falciparum [7] = assay: Antiplasmodial activity against Plasmodium falciparum 3D7 infected in O positive erythrocytes assessed as parasitemia at 50 uM after 36 hrs by FACS-based assay (reference value: 1.617%); assay type: functional
Plasmodium falciparum [8] = assay: Antiplasmodial activity against Plasmodium falciparum 3D7 infected in O positive erythrocytes assessed as inhibition of parasite growth at 40 uM by FACS-based assay; assay type: functional
Plasmodium falciparum [9] = assay: Antiplasmodial activity against Plasmodium falciparum 3D7 infected in O positive erythrocytes assessed as parasitemia at 50 uM after 48 hrs by FACS-based assay (reference value: 3.484%); assay type: functional
Plasmodium falciparum [10] = assay: Antiplasmodial activity against Plasmodium falciparum 3D7 infected in O positive erythrocytes assessed as inhibition of parasite growth at 500 nM by FACS-based assay; assay type: functional
HepG2 [11] = assay: Cytotoxicity against human HepG2 cells at 10 uM after 24 hrs by MTT colorimetric assay; assay type: cell-based; conditions: hepg2, 24 h
HepG2 [12] = assay: Cytotoxicity against human HepG2 cells at 1 uM after 24 hrs by MTT colorimetric assay; assay type: cell-based; conditions: hepg2, 24 h
HepG2 [13] = assay: Cytotoxicity against human HepG2 cells at 100 uM after 24 hrs by MTT colorimetric assay; assay type: cell-based; conditions: hepg2, 24 h

| Structure (SMILES) | inhibition at 10 µM (Plasmodium falciparum [1]) [%] | inhibition at 50 µM (Plasmodium falciparum [2]) [%] | inhibition at 1 µM (Plasmodium falciparum [3]) [%] | inhibition at 30 µM (Plasmodium falciparum [4]) [%] | inhibition at 20 µM (Plasmodium falciparum [5]) [%] | Activity (Plasmodium falciparum [6]) [%] | Activity (Plasmodium falciparum [7]) [%] | inhibition at 40 µM (Plasmodium falciparum [8]) [%] | Activity (Plasmodium falciparum [9]) [%] | inhibition at 0.5 µM (Plasmodium falciparum [10]) [%] | Activity (HepG2 [11]) [%] | Activity (HepG2 [12]) [%] | Activity (HepG2 [13]) [%] |
| --- | --- | --- | --- | --- | --- | --- | --- | --- | --- | --- | --- | --- | --- |
| C[C@]12CCC(=O)N1[C@H](CO)Cc1ccccc12 | 5.67 | 19.1 |  |  |  |  |  |  |  |  |  |  |  |
| CN(C)C[C@@H]1Cc2ccccc2[C@@]2(C)CCC(=O)N12 | 1.92 | 12.7 |  |  |  |  |  |  |  |  |  |  |  |
| CCOC(=O)C1C[C@]2(C)c3ccccc3C[C@@H](CN(C)C)N2C1=O (stereo not given in full) | 7.19 | 74.5 |  |  |  |  |  |  |  |  |  |  |  |
| CCOC(=O)[C@]1(c2ccc([N+](=O)[O-])cc2[N+](=O)[O-])C[C@]2(C)c3ccccc3C[C@@H](CN(C)C)N2C1=O | 71.6 | 89.6 | 0 | 48.9 | 21.1 | 1.737 | 1.217 | 61.5 | 1.283 | 0 |  |  |  |
| CCOC(=O)[C@@]1(c2ccc([N+](=O)[O-])cc2[N+](=O)[O-])C[C@]2(C)c3ccccc3C[C@@H](CN(C)C)N2C1=O | 0.385 | 91.5 | 5.77 | 52.9 | 48.1 | 1.421 | 1.571 | 66.5 | 0.9355 | 0 |  |  |  |
| CN(C)C[C@@H]1Cc2ccccc2[C@@]2(C)C[C@]3(C(=O)Nc4cc(N)ccc43)C(=O)N12 | 6.54 | 82.3 | 2.88 | 53.9 | 34.6 |  |  | 62.5 |  | 0 | 5 | -23 | -36 |
| CN(C)C[C@@H]1Cc2ccccc2[C@@]2(C)C[C@@]3(C(=O)Nc4cc(N)ccc43)C(=O)N12 | 5.38 | 10.1 |  |  |  |  |  |  |  |  | -6 | -52 | -39 |
| CN(C)C[C@@H]1Cc2ccccc2[C@@]2(C)C[C@]3(C(=O)Nc4ccccc43)C(=O)N12 | 30.1 | 59.7 | 1.92 | 48.1 | 44.2 |  |  | 51.9 |  | 0 | 1 | -54 | -29 |
| CN(C)C[C@@H]1Cc2ccccc2[C@@]2(C)C[C@@]3(C(=O)Nc4ccccc43)C(=O)N12 | 14.8 | 64.6 | 2.64 | 52.4 | 37 |  |  | 59.1 |  | 0.721 | -4 | -7 | -4 |
| C=CCC1(CC=C)C[C@]2(C)c3ccccc3C[C@@H](CO)N2C1=O | 2.27 | 3.1 |  |  |  |  |  |  |  |  |  |  |  |
| C[C@]12CC3(CC=CC3)C(=O)N1[C@H](CO)Cc1ccccc12 | 1.8 | 2.13 |  |  |  | 0.7444 | 1.161 |  | 0.9149 |  | -24 | -5 | -155 |
| C[C@]12CC3(CCCC3)C(=O)N1[C@H](CO)Cc1ccccc12 | 0.971 | 1.53 |  |  |  | 1.024 | 1.407 |  | 1.06 |  | -15 | -63 | 10 |
| C[C@]12C[C@@]3(C(=O)NCC3c3ccccc3)C(=O)N1[C@H](CO)Cc1ccccc12 (stereo not given in full) |  |  |  |  |  | 1.209 | 1.255 |  | 1.058 |  |  |  |  |
| C[C@]12C[C@]3(C(=O)NCC3c3ccccc3)C(=O)N1[C@H](CO)Cc1ccccc12 (stereo not given in full) |  |  |  |  |  |  |  |  |  |  | -19 | -29 | -41 |
| COC(=O)C1(C(C[N+](=O)[O-])c2ccccc2)C[C@]2(C)c3ccccc3C[C@@H](CO)N2C1=O (mixture of isomers) | 1.21 | 1.9 |  |  |  |  |  |  |  |  | -3 | -45 | -55 |
